Measured values: ChEMBL document CHEMBL5634119, “Design and synthesis of 4th generation EGFR inhibitors against human triple (Del19/T790M/C797S) mutation” (Eur J Med Chem, 2023)

Tests used:
[1] = Inhibition of EGFR del19/T790M/C797S triple mutant in mouse BAF3 cells assessed as reduction in cell proliferation incubated for 3 days by celltiter-glo assay; assay type: cell-based; conditions: BaF3, 72 h
[2] = Inhibition of wild type EGFR in mouse BAF3 cells assessed as reduction in cell proliferation incubated for 3 days by celltiter-glo assay; assay type: cell-based; conditions: BaF3, 72 h
HCC827 = test: Antiproliferative activity against human HCC827 cells harboring EGFR Del19 mutant incubated for 72 hrs by SRB assay; assay type: functional, cell-based; conditions: HCC827, 72 h
NCI-H1975 [3] = test: Antiproliferative activity against human NCI-H1975 cells harboring EGFR L858R/T790M mutant incubated for 72 hrs by SRB assay; assay type: functional, cell-based; conditions: NCI-H1975, 72 h
PC-9 = test: Antiproliferative activity against human PC-9 cells harboring EGFR Del19/T790M/C797S mutant incubated for 72 hrs by SRB assay; assay type: functional, cell-based; conditions: PC-9, 72 h
NCI-H1975 [4] = test: Antiproliferative activity against human NCI-H1975 cells harboring EGFR L858R/T790M/C797S mutant incubated for 72 hrs by SRB assay; assay type: functional, cell-based; conditions: NCI-H1975, 72 h
A-431 = test: Antiproliferative activity against human A-431 cells harboring wild type EGFR incubated for 72 hrs by SRB assay; assay type: functional, cell-based; conditions: A-431, 72 h
[5] = Inhibition of ERK phosphorylation in human PC-9 cells harboring Del19/T790M/C797S mutant incubated for 6 hrs by Western blot analysis; assay type: cell-based; conditions: PC-9, 6 h
[6] = Inhibition of AKT phosphorylation in human PC-9 cells harboring Del19/T790M/C797S mutant incubated for 6 hrs by Western blot analysis; assay type: cell-based; conditions: PC-9, 6 h
[7] = Inhibition of ERK phosphorylation in human A-431 cells harboring wild type EGFR incubated for 6 hrs by Western blot analysis; assay type: cell-based; conditions: A-431, 6 h
[8] = Inhibition of AKT phosphorylation in human A-431 cells harboring wild type EGFR incubated for 6 hrs by Western blot analysis; assay type: cell-based; conditions: A-431, 6 h

Compound | IC50 [1] [nM] | IC50 [2] [nM] | also measured
CN(c1ccccc1Nc1nc(Nc2ccc(N3CCC(N4CCN(C5CC5)CC4)CC3)c(F)c2)nc2[nH]ccc12)S(C)(=O)=O | 213 | 815 | 
COc1cc(Nc2nc(Nc3ccccc3N(C)S(C)(=O)=O)c3cc[nH]c3n2)ccc1N1CCN(C)CC1 | 36.7 | 41.4 | 
CN1CCN(c2ccc(Nc3nc(Nc4ccccc4NS(C)(=O)=O)c4cc[nH]c4n3)cc2F)CC1 | 125 | 2640 | 
CC(C)N1CCN(C2CCN(c3ccc(Nc4nc(Nc5ccccc5N(C)S(C)(=O)=O)c5cc[nH]c5n4)cc3F)CC2)CC1 | 82.4 | 620 | 
CN(c1ccccc1Nc1nc(Nc2ccc(N3CCN(C4CC4)CC3)c(F)c2)nc2[nH]ccc12)S(C)(=O)=O | 383 | 790 | 
CC(C)S(=O)(=O)N(C)c1ccccc1Nc1nc(Nc2ccc(N3CCN(C)CC3)c(F)c2)nc2[nH]ccc12 | 49 | 185 | 
Cc1cc(Nc2nc(Nc3ccccc3N(C)S(C)(=O)=O)c3cc[nH]c3n2)ccc1N1CCN(C)CC1 | 30.8 | 41.7 | 
CCCN1CCN(C2CCN(c3ccc(Nc4nc(Nc5ccccc5N(C)S(C)(=O)=O)c5cc[nH]c5n4)cc3F)CC2)CC1 | 84.2 | 754 | 
CCN(c1ccccc1Nc1nc(Nc2ccc(N3CCN(C)CC3)c(F)c2)nc2[nH]ccc12)S(C)(=O)=O | 36.6 | 203 | 
CCCN1CCN(c2ccc(Nc3nc(Nc4ccccc4N(C)S(C)(=O)=O)c4cc[nH]c4n3)cc2F)CC1 | 142 | 687 | 
CN1CCN(c2ccc(Nc3nc(Nc4ccccc4N(C)S(C)(=O)=O)c4cc[nH]c4n3)cc2)CC1 | 28.4 | 120 | 
CN1CCN(c2ccc(Nc3nc(Nc4ccccc4N(C)S(C)(=O)=O)c4cc[nH]c4n3)c(F)c2)CC1 | 157 | 202 | 
COc1cc(N2CCC(N3CCN(C)CC3)CC2)ccc1Nc1ncc(Cl)c(Nc2ccccc2P(C)(C)=O)n1 [BRIGATINIB] | 227 | 782 | IC50 (HCC827): 282 nM; IC50 (NCI-H1975 [3]): 380 nM; IC50 (PC-9): 838 nM; IC50 (NCI-H1975 [4]): 1130 nM; IC50 (A-431): 540 nM; IC50 [5]: 3730 nM; IC50 [6]: 984 nM; IC50 [7]: 5830 nM; IC50 [8]: 3330 nM
C=CC(=O)Nc1cc(Nc2nccc(-c3cn(C)c4ccccc34)n2)c(OC)cc1N(C)CCN(C)C [OSIMERTINIB] | 1240 | 13.5 | 
